Blank lines part the entries; values can stand above or below the molecule they belong to.
How the values were obtained:
[1] = cited from earlier work
[2] = Dissolution of dried new form in water (observation); assay type: physicochemical; details: dried form with potassium cation placed in water
Excerpt: The new ibuprofen form of the present invention dissociates into ibuprofen in its free acid form.

[3] = Dynamic Vapor Sorption Moisture Balance, relative weight gain due to moisture pickup; assay type: physicochemical; details: for critical humidity: cycled between 0% RH to 95% RH to 0% RH over 48 hours at 25° C.
Method: Samples were cycled between 0% RH to 95% RH to 0% RH over 48 hours at 25° C. […] At 50% humidity, the relative weight gain due to moisture pickup was about 25% while at 70% humidity the relative weight gain was about 35%. […] At 50% humidity the relative weight gain due to moisture pickup was about 1.4% and at 70% humidity the weight gain was bout 2%.

Compound: CC(C)Cc1ccc(C(C)C(=O)O)cc1 (racemic) [Ibuprofen, ibuprofen]
solubility in water ([1]; water): < 100 µg/mL

dissolution in water (in words) [2]: readily dissolves in water | dissolution in water (in words) ([2]; listed as ibuprofen form of the present invention wherein the cation is potassium): immediate dissolution | hygroscopicity compared to the potassium salt of ibuprofen ([3]; 0-95% RH cycle, 25° C.): significantly less hygroscopic | critical humidity [3]: about 30%
Compound: CC(C)Cc1ccc(C(C)C(=O)O)cc1.CC(C)Cc1ccc(C(C)C(=O)[O-])cc1.[K+] (stereo not shown) [new ibuprofen form]
physical change of sample during humidity cycling ([3]; 0-95% RH cycle, 25° C.): No change in crystal appearance was observed

Compound: CO[C@@H]1[C@@H](OC(N)=O)[C@@H](O)[C@H](Oc2ccc3c(O)c(NC(=O)c4ccc(O)c(CC=C(C)C)c4)c(=O)oc3c2C)OC1(C)C [novobiocin]
solubility of amorphous substance versus crystalline agent ([1]; amorphous vs crystalline, Mullins and Macek 1960): ten times higher

physical change of sample during humidity cycling ([3]; 0-95% RH cycle, 25° C.): the sample dissolved and formed a gel | critical humidity [3]: about 30%
Compound: CC(C)Cc1ccc(C(C)C(=O)O)cc1.[K] (stereo not shown) [potassium ibuprofen]
solubility (in words) ([1]; background statement): highly soluble
